Source: patent publication US20120141478A1, “COMPOSITIONS AND METHODS FOR DELIVERING ANTI-ACTIVATED RAS ANTIBODIES” (Cellectis S.A., priority 2006, published 2012)

Tests used:
[1] = tested on: human lung carcinoma expressing K-RAS; settings: cited from earlier work
K-RASmt HCT 116 cells = experiment: In vitro anti-proliferative activity (WST-1) on HCT 116; type: cell-based, human
Description: Cells were incubated for 120 hours with the antibody alone (Y13259; 700 nM), or the DPV3-Y13259 conjugate (700 nM), with DPV3-maleimide as internal controls (DPV3-mal; 700 nM). Non-relevant IgG1 anti-peroxydase immunoglobulins (IgG PO; 700 nM) and an inhibitor of RAS farnesyltransferase (FTI-276; 100 nM) were used as internal controls. Results are expressed as mean±SEM of three independent experiments performed in duplicate. *p<0.05 vs not treated cells.
HCT 116 and HT-29 were seeded at 8×10^3 cells/well (96-well plates) in medium+0.5% and 10% FCS (Foetal Calf Serum) respectively. The day after, cells were treated with increasing concentrations of tested compounds in complete medium (+10% FCS) and cells were counted overtime at 24 h, 48 h, 72 h and 120 h using the WST-1 method, described hereafter. The medium was removed and 100 μl of fresh medium without FCS supplemented with 10% WST-1 solution was added on cells for 2 h at 37° C., 5% CO2. Measurement of A450 nm−A690 nm (blank=0 cells) was performed to determine cell number.
CPP-Y13259 conjugates were tested in a cell proliferation assay on mutated RAS-expressing and wild-type RAS expressing cell lines (HCT 116 and HT-29, respectively). FTI-276, a farnesyltransferase inhibitor that inhibits RAS-mediated cell proliferation constituted a positive control. […]

[2] = target: mutated Ki-RAS of HCT 116 cells (human) (UniProt P01116); experiment: cell-based or functional assay

Compound	effect on tumor growth in nude mice [1]	duration of the effect on HCT 116 cell proliferation (K-RASmt HCT 116 cells; 120 hours = maximum time tested)	effect on HCT 116 cell proliferation (K-RASmt HCT 116 cells; FTI-276 100 nM, positive control)	efficient concentration, HCT 116 cell proliferation (WST-1) [2] [nM]
CSCC[C@H](NC(=O)c1ccc(NC[C@@H](N)CS)cc1-c1ccccc1)C(=O)O [FTI-276]	block the growth of a human lung carcinoma expressing K-RAS in nude mice	at least 120 hours	inhibited HCT 116 cell proliferation	
DPV3-Y13259 conjugate (antibody)				85 to 700
